Earlier results on one compound are cited in patent publication US6756057B2, “Amoxicillin and potassium clavulanate dosage form” (Beecham Pharmaceuticals (pte) Limited, priority 2000, dated 2004).

For the data set the following is noted: in vivo.

Structures are written as SMILES.

Regarding `CC1(C)S[C@@H]2[C@H](NC(=O)[C@H](N)c3ccc(O)cc3)C(=O)N2[C@H]1C(=O)O` [amoxicillin], the elimination half-life entry was “about 1.3 hours”.
